Where two headings read alike, the source gives them in different places.
Tested on: C. difficile
Experiment: MIC via agar dilution, 110 genetically distinct clinical isolates of C. difficile
Format: cell-based
[1] = Clostridioides difficile, 110 clinical isolates, agar dilution

CCc1c(Cl)c(O)c(Cl)c(O)c1C(=O)O[C@H]1[C@H](O)[C@H](OC)[C@H](OC/C2=C\C=C\C[C@H](O)/C(C)=C/[C@H](CC)C(O[C@@H]3OC(C)(C)[C@@H](OC(=O)C(C)C)[C@H](O)[C@@H]3O)/C(C)=C/C(C)=C/C[C@@H](C(C)O)OC2=O)O[C@@H]1C (stereo partly drawn) [Compound I]
0.03 µg/mL: MIC (Clostridioides difficile, isolate ORG ID 61 5930, read-out: MIC) | MIC (Clostridioides difficile, isolate ORG ID 68 6368, read-out: MIC) | MIC (Clostridioides difficile, isolate ORG ID 86 6333, read-out: MIC) | MIC (Clostridioides difficile, isolate ORG ID 104 6060, read-out: MIC) | MIC (Clostridioides difficile, isolate ORG ID 105 6071, read-out: MIC) | MIC (Clostridioides difficile, isolate ORG ID 106 6078, read-out: MIC) | MIC (Clostridioides difficile, isolate ORG ID 111 6279, read-out: MIC) | MIC (Clostridioides difficile, isolate ORG ID 120 6057, read-out: MIC) | MIC (Clostridioides difficile, isolate ORG ID D1 1360, read-out: MIC) | MIC (Clostridioides difficile, isolate ORG ID J7 4224, read-out: MIC) | MIC (Clostridioides difficile, isolate ORG ID Z1 3036, read-out: MIC)
0.015 µg/mL: MIC (Clostridioides difficile, isolate ORG ID 66 6366, read-out: MIC) | MIC (Clostridioides difficile, isolate ORG ID 78 6392, read-out: MIC) | MIC (Clostridioides difficile, isolate ORG ID 94 6343, read-out: MIC) | MIC (Clostridioides difficile, isolate ORG ID 101 6354, read-out: MIC) | MIC (Clostridioides difficile, isolate ORG ID 109 6274, read-out: MIC) | MIC (Clostridioides difficile, isolate ORG ID 115 5985, read-out: MIC) | MIC (Clostridioides difficile, isolate ORG ID AA2 4380, read-out: MIC) | MIC (Clostridioides difficile, isolate ORG ID R6 6015, read-out: MIC)
0.25 µg/mL: MIC (Clostridioides difficile, isolate ORG ID 63 6029, read-out: MIC) | MIC (Clostridioides difficile, isolate ORG ID 69 6370, read-out: MIC) | MIC (Clostridioides difficile, isolate ORG ID 73 6382, read-out: MIC) | MIC (Clostridioides difficile, isolate ORG ID 89 6336, read-out: MIC) | MIC (Clostridioides difficile, isolate ORG ID 97 6349, read-out: MIC) | MIC (Clostridioides difficile, isolate ORG ID 122 6111, read-out: MIC) | MIC (Clostridioides difficile, isolate ORG ID AV1 941, read-out: MIC) | MIC (Clostridioides difficile, isolate ORG ID CB1 1584, read-out: MIC) | MIC (Clostridioides difficile, isolate ORG ID CL1 3851, read-out: MIC) | MIC (Clostridioides difficile, isolate ORG ID CN1 667, read-out: MIC) | MIC (Clostridioides difficile, isolate ORG ID CO1 4652, read-out: MIC)
0.06 µg/mL: MIC (Clostridioides difficile, isolate ORG ID 65 5967, read-out: MIC) | MIC (Clostridioides difficile, isolate ORG ID 77 6390, read-out: MIC) | MIC (Clostridioides difficile, isolate ORG ID 82 6329, read-out: MIC) | MIC (Clostridioides difficile, isolate ORG ID 83 6330, read-out: MIC) | MIC (Clostridioides difficile, isolate ORG ID 85 6332, read-out: MIC) | MIC (Clostridioides difficile, isolate ORG ID 96 6348, read-out: MIC) | MIC (Clostridioides difficile, isolate ORG ID 103 6068, read-out: MIC) | MIC (Clostridioides difficile, isolate ORG ID 107 6079, read-out: MIC) | MIC (Clostridioides difficile, isolate ORG ID 112 6280, read-out: MIC) | MIC (Clostridioides difficile, isolate ORG ID 113 6304, read-out: MIC) | MIC (Clostridioides difficile, isolate ORG ID 114 386, read-out: MIC) | MIC (Clostridioides difficile, isolate ORG ID 116 5702, read-out: MIC) | MIC (Clostridioides difficile, isolate ORG ID 117 6026, read-out: MIC) | MIC (Clostridioides difficile, isolate ORG ID 121 6072, read-out: MIC) | MIC (Clostridioides difficile, isolate ORG ID AB2 1725, read-out: MIC) | MIC (Clostridioides difficile, isolate ORG ID AC1 1546, read-out: MIC) | MIC (Clostridioides difficile, isolate ORG ID AJ1 1557, read-out: MIC) | MIC (Clostridioides difficile, isolate ORG ID AL1 1753, read-out: MIC) | MIC (Clostridioides difficile, isolate ORG ID B1 832, read-out: MIC) | MIC (Clostridioides difficile, isolate ORG ID BH1 4506, read-out: MIC) | MIC (Clostridioides difficile, isolate ORG ID BM1 1453, read-out: MIC) | MIC (Clostridioides difficile, isolate ORG ID BR1 1321, read-out: MIC) | MIC (Clostridioides difficile, isolate ORG ID BT1 706, read-out: MIC) | MIC (Clostridioides difficile, isolate ORG ID E1 816, read-out: MIC) | MIC (Clostridioides difficile, isolate ORG ID J1 5971, read-out: MIC) | MIC (Clostridioides difficile, isolate ORG ID J9 4478, read-out: MIC) | MIC (Clostridioides difficile, isolate ORG ID O1 1861, read-out: MIC) | MIC (Clostridioides difficile, isolate ORG ID Y1 5639, read-out: MIC) | MIC (Clostridioides difficile, isolate ORG ID Y2 1459, read-out: MIC)
0.08 µg/mL: MIC (Clostridioides difficile, 110 clinical isolates, agar dilution, read-out: Geometric Mean (MIC))
0.125 µg/mL: MIC (Clostridioides difficile) | MIC50 [1] | MIC90 [1] | MIC (isolate ORG ID 64 5940) | MIC (isolate ORG ID 67 6367) | MIC (isolate ORG ID 70 6376) | MIC (isolate ORG ID 71 6379) | MIC (isolate ORG ID 72 6380) | MIC (isolate ORG ID 75 6388) | MIC (isolate ORG ID 76 6389) | MIC (isolate ORG ID 80 6327) | MIC (isolate ORG ID 81 6328) | MIC (isolate ORG ID 84 6331) | MIC (isolate ORG ID 87 6334) | MIC (isolate ORG ID 88 6335) | MIC (isolate ORG ID 90 6338) | MIC (isolate ORG ID 91 6339) | MIC (isolate ORG ID 93 6341) | MIC (isolate ORG ID 95 6347) | MIC (isolate ORG ID 98 6350) | MIC (isolate ORG ID 100 6353) | MIC (isolate ORG ID A1 1535) | MIC (isolate ORG ID AF1 1808) | MIC (isolate ORG ID AG1 3044) | MIC (isolate ORG ID AH1 3430) | MIC (isolate ORG ID AN1 464) | MIC (isolate ORG ID AO1 287) | MIC (isolate ORG ID AS1 4099) | MIC (isolate ORG ID AT1 1216) | MIC (isolate ORG ID AW1 4501) | MIC (isolate ORG ID BE1 4307) | MIC (isolate ORG ID BI1 1675) | MIC (isolate ORG ID BK1 4291) | MIC (isolate ORG ID BL1 716) | MIC (isolate ORG ID BN1 1322) | MIC (isolate ORG ID BV1 1183) | MIC (isolate ORG ID BW1 3130) | MIC (isolate ORG ID BX1 4271) | MIC (isolate ORG ID CF1 5922) | MIC (isolate ORG ID CG1 1566) | MIC (isolate ORG ID CJ1 893) | MIC (isolate ORG ID CP1 5491) | MIC (isolate ORG ID G1 1077) | MIC (isolate ORG ID I1 1389) | MIC (isolate ORG ID K1 4305) | MIC (isolate ORG ID K14 5780) | MIC (isolate ORG ID L1 1423) | MIC (isolate ORG ID N1 471) | MIC (isolate ORG ID R1 397) | MIC (isolate ORG ID V1 1521) | MIC (isolate ORG ID W1 3931) | MIC (isolate ORG ID X1 1890)
0.016 µg/mL: MIC (Clostridioides difficile, isolate ORG ID 102 6355, read-out: MIC)
0.015 to 0.25 µg/mL: Range (MIC) (110 clinical isolates, agar dilution)
